Source: PubChem BioAssay (NCI)
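Following 48 hours of exposure in 96-well plates, responses at five concentrations were used to interpolate endpoints linearly. Definition used: TGI = concentration required for complete inhibition of growth.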

What was measured:
Experiment in all cases: NCI anticancer screen, dose series, 48 h
MALME-3M melanoma = tested on: MALME-3M melanoma
A498 renal = tested on: A498 renal
KM12 colon = tested on: KM12 colon
SR leukemia = tested on: SR leukemia
UACC-62 melanoma = tested on: UACC-62 melanoma
SK-OV-3 ovarian = tested on: SK-OV-3 ovarian
NCI/ADR-RES ovarian = tested on: NCI/ADR-RES ovarian
SN12C renal = tested on: SN12C renal
CAKI-1 renal = tested on: CAKI-1 renal
U251 CNS = tested on: U251 CNS
OVCAR-8 ovarian = tested on: OVCAR-8 ovarian
SK-MEL-28 melanoma = tested on: SK-MEL-28 melanoma
HOP-92 NSCLC = tested on: HOP-92 NSCLC
SF-268 CNS = tested on: SF-268 CNS
LOX IMVI melanoma = tested on: LOX IMVI melanoma
TK-10 renal = tested on: TK-10 renal
OVCAR-4 ovarian = tested on: OVCAR-4 ovarian
UO-31 renal = tested on: UO-31 renal
MCF7 breast = tested on: MCF7 breast
CCRF-CEM leukemia = tested on: CCRF-CEM leukemia
IGROV1 ovarian = tested on: IGROV1 ovarian
RXF 393 renal = tested on: RXF 393 renal
RPMI-8226 leukemia = tested on: RPMI-8226 leukemia
ACHN renal = tested on: ACHN renal
786-0 renal = tested on: 786-0 renal
PC-3 prostate = tested on: PC-3 prostate
NCI-H23 lung = tested on: NCI-H23 lung
SW-620 colon = tested on: SW-620 colon
NCI-H226 lung = tested on: NCI-H226 lung
NCI-H522 lung = tested on: NCI-H522 lung
OVCAR-3 ovarian = tested on: OVCAR-3 ovarian
MDA-N = tested on: MDA-N
A549 NSCLC = tested on: A549 NSCLC
SF-539 CNS = tested on: SF-539 CNS
SNB-75 CNS = tested on: SNB-75 CNS
OVCAR-5 ovarian = tested on: OVCAR-5 ovarian
K-562 leukemia = tested on: K-562 leukemia
MDA-MB-435 = tested on: MDA-MB-435
HS 578T breast = tested on: HS 578T breast
HL-60(TB) leukemia = tested on: HL-60(TB) leukemia
COLO 205 colon = tested on: COLO 205 colon
HCT-15 colon = tested on: HCT-15 colon
MOLT-4 leukemia = tested on: MOLT-4 leukemia
SK-MEL-5 melanoma = tested on: SK-MEL-5 melanoma
BT-549 breast = tested on: BT-549 breast
NCI-H460 lung = tested on: NCI-H460 lung
SK-MEL-2 melanoma = tested on: SK-MEL-2 melanoma
HT29 colon = tested on: HT29 colon
HCT-116 colon = tested on: HCT-116 colon
DU-145 prostate = tested on: DU-145 prostate
SNB-19 CNS = tested on: SNB-19 CNS
SF-295 CNS = tested on: SF-295 CNS
HOP-62 NSCLC = tested on: HOP-62 NSCLC
T-47D breast = tested on: T-47D breast
UACC-257 melanoma = tested on: UACC-257 melanoma
EKVX NSCLC = tested on: EKVX NSCLC
M14 melanoma = tested on: M14 melanoma
MDA-MB-231 breast = tested on: MDA-MB-231 breast
HCC-2998 colon = tested on: HCC-2998 colon

Cc1cn(C2OC(CO)C(O)C2O)c(=O)[nH]c1=O (stereo not drawn)
TGI (MALME-3M melanoma): > 1000 µM
TGI (A498 renal): > 1000 µM
TGI (KM12 colon): > 1000 µM
TGI (SR leukemia): > 1000 µM
TGI (UACC-62 melanoma): > 1000 µM
TGI (SK-OV-3 ovarian): > 1000 µM
TGI (NCI/ADR-RES ovarian): > 1000 µM
TGI (SN12C renal): > 1000 µM
TGI (CAKI-1 renal): > 1000 µM
TGI (U251 CNS): > 1000 µM
TGI (OVCAR-8 ovarian): > 1000 µM
TGI (SK-MEL-28 melanoma): > 1000 µM
TGI (HOP-92 NSCLC): > 1000 µM
TGI (SF-268 CNS): > 1000 µM
TGI (LOX IMVI melanoma): > 1000 µM
TGI (TK-10 renal): > 1000 µM
TGI (OVCAR-4 ovarian): > 1000 µM
TGI (UO-31 renal): > 1000 µM
TGI (MCF7 breast): > 1000 µM
TGI (CCRF-CEM leukemia): > 1000 µM
TGI (IGROV1 ovarian): > 1000 µM
TGI (RXF 393 renal): > 1000 µM
TGI (RPMI-8226 leukemia): > 1000 µM
TGI (ACHN renal): > 1000 µM
TGI (786-0 renal): > 1000 µM
TGI (PC-3 prostate): > 1000 µM
TGI (NCI-H23 lung): > 1000 µM
TGI (SW-620 colon): > 1000 µM
TGI (NCI-H226 lung): > 1000 µM
TGI (NCI-H522 lung): > 1000 µM
TGI (OVCAR-3 ovarian): > 1000 µM
TGI (MDA-N): > 1000 µM
TGI (A549 NSCLC): > 1000 µM
TGI (SF-539 CNS): > 1000 µM
TGI (SNB-75 CNS): > 1000 µM
TGI (OVCAR-5 ovarian): > 1000 µM
TGI (K-562 leukemia): > 1000 µM
TGI (MDA-MB-435): > 1000 µM
TGI (HS 578T breast): > 1000 µM
TGI (HL-60(TB) leukemia): > 1000 µM
TGI (COLO 205 colon): > 1000 µM
TGI (HCT-15 colon): > 1000 µM
TGI (MOLT-4 leukemia): > 1000 µM
TGI (SK-MEL-5 melanoma): > 1000 µM
TGI (BT-549 breast): > 1000 µM
TGI (NCI-H460 lung): > 1000 µM
TGI (SK-MEL-2 melanoma): > 1000 µM
TGI (HT29 colon): > 1000 µM
TGI (HCT-116 colon): > 1000 µM
TGI (DU-145 prostate): > 1000 µM
TGI (SNB-19 CNS): > 1000 µM
TGI (SF-295 CNS): > 1000 µM
TGI (HOP-62 NSCLC): > 1000 µM
TGI (T-47D breast): > 1000 µM
TGI (UACC-257 melanoma): > 1000 µM
TGI (EKVX NSCLC): > 1000 µM
TGI (M14 melanoma): > 1000 µM
TGI (MDA-MB-231 breast): > 1000 µM
TGI (HCC-2998 colon): > 1000 µM

Cc1ccc(-c2cc(-c3cc(-c4ccc(C)cc4C)n[nH]3)[nH]n2)c(C)c1
TGI (MALME-3M melanoma): 25 µM
TGI (A498 renal): 34.1 µM
TGI (KM12 colon): 49 µM
TGI (SR leukemia): 26.5 µM
TGI (UACC-62 melanoma): > 62 µM
TGI (SK-OV-3 ovarian): 29.4 µM
TGI (NCI/ADR-RES ovarian): 43 µM
TGI (SN12C renal): 30.7 µM
TGI (CAKI-1 renal): 36.2 µM
TGI (U251 CNS): 27.6 µM
TGI (OVCAR-8 ovarian): 43.1 µM
TGI (SK-MEL-28 melanoma): 32.4 µM
TGI (HOP-92 NSCLC): 39 µM
TGI (SF-268 CNS): 27.5 µM
TGI (LOX IMVI melanoma): 38.4 µM
TGI (TK-10 renal): 29.4 µM
TGI (OVCAR-4 ovarian): 29.1 µM
TGI (UO-31 renal): 45.7 µM
TGI (MCF7 breast): 38.8 µM
TGI (CCRF-CEM leukemia): 8.45 µM
TGI (IGROV1 ovarian): 28.6 µM
TGI (RXF 393 renal): 32.7 µM
TGI (RPMI-8226 leukemia): 10.5 µM
TGI (ACHN renal): 24.4 µM
TGI (786-0 renal): 26.2 µM
TGI (PC-3 prostate): 29.2 µM
TGI (NCI-H23 lung): 41.9 µM
TGI (SW-620 colon): 33.1 µM
TGI (NCI-H226 lung): 42.9 µM
TGI (NCI-H522 lung): 30.3 µM
TGI (OVCAR-3 ovarian): 26.9 µM
TGI (MDA-N): 34.1 µM
TGI (A549 NSCLC): > 52.4 µM
TGI (SF-539 CNS): 34 µM
TGI (SNB-75 CNS): 34.8 µM
TGI (OVCAR-5 ovarian): 59 µM
TGI (K-562 leukemia): 37.4 µM
TGI (MDA-MB-435): 31.1 µM
TGI (HS 578T breast): 44.6 µM
TGI (HL-60(TB) leukemia): 0.0792 µM
TGI (COLO 205 colon): > 62 µM
TGI (HCT-15 colon): 44.8 µM
TGI (MOLT-4 leukemia): 36.8 µM
TGI (SK-MEL-5 melanoma): 56.2 µM
TGI (BT-549 breast): 42.7 µM
TGI (NCI-H460 lung): 21.4 µM
TGI (SK-MEL-2 melanoma): 36.2 µM
TGI (HT29 colon): 35.1 µM
TGI (HCT-116 colon): 33 µM
TGI (DU-145 prostate): 33.1 µM
TGI (SNB-19 CNS): 41.2 µM
TGI (SF-295 CNS): 26.5 µM
TGI (HOP-62 NSCLC): 30.2 µM
TGI (T-47D breast): > 74.4 µM
TGI (UACC-257 melanoma): 26.7 µM
TGI (EKVX NSCLC): 46 µM
TGI (M14 melanoma): 40.3 µM
TGI (MDA-MB-231 breast): 32.8 µM
TGI (HCC-2998 colon): 28.9 µM
